The results in this text go back to patent US20180092866A1, “SUBSTITUTED N-([1,1'-BIPHENYL]-3-YL)-[1,1'-BIPHENYL]-3-CARBOXAMIDE ANALOGS AS INHIBITORS FOR BETA-CATENIN/B-CELL LYMPHOMA 9 INTERACTIONS” (University of Utah Research Foundation, priority 2015, published 2018).

In experiment [1] the target is T1, wild-type human β-catenin (residues 138-686) (Homo sapiens, UniProt P35222).
T1 construct: His6 (C); made in house; host or cells: E. coli BL21 DE3
T1 sequence (P35222 138-686): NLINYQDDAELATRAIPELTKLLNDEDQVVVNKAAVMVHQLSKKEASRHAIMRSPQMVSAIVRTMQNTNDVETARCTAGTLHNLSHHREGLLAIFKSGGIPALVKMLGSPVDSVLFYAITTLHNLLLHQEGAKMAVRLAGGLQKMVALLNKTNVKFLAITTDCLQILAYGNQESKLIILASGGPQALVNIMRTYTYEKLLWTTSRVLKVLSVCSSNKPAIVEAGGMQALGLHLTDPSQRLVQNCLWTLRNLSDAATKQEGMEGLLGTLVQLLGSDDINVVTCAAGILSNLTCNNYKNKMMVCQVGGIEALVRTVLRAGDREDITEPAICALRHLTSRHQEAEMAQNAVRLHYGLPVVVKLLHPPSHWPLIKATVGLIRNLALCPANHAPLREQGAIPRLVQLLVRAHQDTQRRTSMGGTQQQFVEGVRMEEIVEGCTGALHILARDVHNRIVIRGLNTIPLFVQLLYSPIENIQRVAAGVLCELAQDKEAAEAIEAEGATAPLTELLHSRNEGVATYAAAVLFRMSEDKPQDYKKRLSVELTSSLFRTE
The experiment can be described thus: Isothermal titration calorimetry, wild-type β-catenin. To be noted: ITC, 28° C. In kind it is binding. The method, then:
(§1) ITC measurements were performed at 28° C. using a VP-ITC (Microcal, GE Healthcare Life Sciences). […] The homogeneity of the purified proteins were examined by native gel electrophoresis. Each titration experiment was initiated by a 2 μL injection, and followed by 30-35 times injections with an 8 μL volume each. Blank titrations, which were carried out by injecting the compound into the buffer, were subtracted from each data set. The association constant KA, enthalpy change (ΔH), and stoichiometry N were obtained from fitting the data using the Origin software package. The dissociation constant Kd, the free energy change ΔG, and the entropy change ΔS were obtained from the basic thermodynamic equations, Kd=KA^−1, ΔG=−RTlnKA, and ΔG=ΔH−TΔS.
A general note: Isothermal titration calorimetry measures the heat released or taken up as one component is titrated into another.

The subject of experiment [2] is AXIN2, LGR5, LEF1, and cyclin D1 transcription in MDA-MB-231 cells. The experiment is described as follows: Quantitative real-time PCR, MDA-MB-231 cells. In kind it is cell-based, human. To be noted: 2 and 4 μM. The method, then:
SW480 and MDA-MB-231 cells at 1×10^6/mL were treated with different concentrations of 21 for 24 h. Total RNAs were extracted with TRIzol ([…], Life Technologies), and the cDNA was synthesized with the superscript III first-strand kit (18080-051, Invitrogen). Quantitative PCR (qPCR) was performed using the iQ™ SYBR green supermix kit (170-8880, BIO-RAD) on an iQ^5 multicolor real-time PCR reaction system (BIO-RAD). The threshold cycle (CT) values were normalized to that of internal reference GAPDH. The primer pairs for human GAPDH were forward: 5′-[…]-3′, and reverse: 5′-[…]-3′, for human AXIN2 forward: 5′-[…]-3′ and reverse: 5′-[…]-3′, for human LGR5 forward: 5′-[…]-3′ and reverse: 5′-[…]-3′, for human LEF1 forward: 5′-[…]-3′ and reverse: 5′-[…] […]-3′, and for human cyclin D1 forward: 5′-[…]-3′, and revers: 5′-[…]-3′. Experiments were performed in triplicate.

The target of experiment [3] is T2, β-catenin L156S/L178S mutant (residues 138-686) (Homo sapiens, UniProt P35222, L156S/L178S).
T2 construct: His6 (C); made in house; host or cells: E. coli BL21 DE3
T2 sequence (P35222 138-686 L156S/L178S): T1 sequence (P35222 138-686) with L19S, L41S
The experiment is described as follows: Isothermal titration calorimetry, β-catenin L156S/L178S. In kind it is binding. Conditions: ITC.
Description: (§2) Mutants β-catenin D145A, E155A, L156S, L159S, D145A/E155A, L156S/L159S, and L156S/L178S were generated using the overlapping PCR method. Template for the mutagenesis reactions was wide type full-length β-catenin in pET-28b. KOD hot start DNA polymerase (Novagen) was used through this experiment. Mutants were confirmed by direct sequencing (Core facility, University of Utah). Following the confirmation of the sequence, mutant β-catenin were cloned into a pET-28b vector and transformed into E. coli BL21 DE3.
as §1

Experiment [4] addresses T3, β-catenin L159S mutant (residues 138-686) (Homo sapiens, UniProt P35222, L159S).
T3 construct: His6 (C); made in house; host or cells: E. coli BL21 DE3
T3 sequence (P35222 138-686 L159S): T1 sequence (P35222 138-686) with L22S
The experiment is described as follows: Isothermal titration calorimetry, β-catenin L159S. In kind it is binding. Conditions: ITC.
Description: as §2, §1

Experiment [5] deals with T4, β-catenin/BCL9 protein-protein interactions (Homo sapiens, UniProt P35222).
T4 construct: C-terminally His6-tagged wild-type or mutant β-catenin (residues 138-686) proteins; made in house; host or cells: E. coli BL21 DE3
T4 sequence (P35222 138-686): T1 sequence (P35222 138-686)
The experiment is described as follows: AlphaScreen competitive inhibition assay, wild-type β-catenin/BCL9. Conditions: for relative inhibitory potency for β-catenin/BCL9 PPIs (in words): AlphaScreen assay, comparison with named compound. The experiment is classed as binding. The method, then: The purity of the wild-type and mutant β-catenin proteins was all greater than 95% as determined by the SDS-PAGE gel analysis. Both the wild-type and mutant β-catenin proteins are stable under the testing conditions. Native non-denaturing gel electrophoresis was performed to confirm the homogeneity of the purified proteins. Experiments were performed in white opaque 384-well plates from PerkinElmer, and the samples were read on a Synergy 2 plate reader (Biotek) with a sensitivity setting of 200 using AlphaScreen protocol with excitation at 680 nm and emission at 570 nm. All dilutions were made in 1×assay buffer containing 25 mM HEPES (pH=7.0), 100 mM NaCl, 0.01% Triton X-100, and 0.1% BSA. In the AlphaScreen competitive inhibition assay, 40 nM of C-terminally His6-tagged wild-type or mutant β-catenin (residues 138-686) proteins was incubated with 5 nM of N-terminal biotinylated human BCL9 26-mer (residues 350-375) for 30 min at 4° C., and then different concentrations of the tested inhibitors in the assay buffer were added to make a final volume of 20 μL. The mixture was incubated at 4° C. for 2 h. The donor and acceptor beads were added to a final concentration of 10 μg/mL in 25 μL of assay buffer. The mixture was incubated at 4° C. for 1 h. The IC50 value was determined by nonlinear least-square analysis of GraphPad Prism 5.0. […] The Ki values were derived from the IC50 values by a reported method (Nikolovska-Coleska et al. (2004) Anal. Biochem. […]: 261-273). Experiments were performed in triplicate and carried out in the presence of 1% DMSO.

For experiment [6], the target named is T5, β-catenin/E-cadherin PPIs (Homo sapiens, UniProt P35222).
T5 construct: β-Catenin or its mutants (residues 138-686) was cloned into a pET-28b vector; made in house; host or cells: E. coli BL21 DE3
T5 sequence (P35222 138-686): T1 sequence (P35222 138-686)
The experiment can be described thus: AlphaScreen selectivity assay, β-catenin/BCL9 versus β-catenin/E-cadherin. In kind it is binding. The text has this: Human BCL9 (residues 350-375), N-terminally biotinylated human BCL9 (residues 350-375), N-terminally fluorescein-labeled human BCL9 (residues 350-375), and N-terminally biotinylated human E-cadherin (residues 824-877) were synthesized by InnoPep Inc. (San Diego, Calif., www.innopep.com). All synthesized peptides were purified by HPLC with purity >95%. The structures were validated by LC/MS. The sequences are shown in Table 2 (Ahx, 6-aminohexanoic acid).
The purity of the wild-type and mutant β-catenin proteins was all greater than 95% as determined by the SDS-PAGE gel analysis. Both the wild-type and mutant β-catenin proteins are stable under the testing conditions. Native non-denaturing gel electrophoresis was performed to confirm the homogeneity of the purified proteins. Experiments were performed in white opaque 384-well plates from PerkinElmer, and the samples were read on a Synergy 2 plate reader (Biotek) with a sensitivity setting of 200 using AlphaScreen protocol with excitation at 680 nm and emission at 570 nm. All dilutions were made in 1×assay buffer containing 25 mM HEPES (pH=7.0), 100 mM NaCl, 0.01% Triton X-100, and 0.1% BSA. […] The IC50 value was determined by nonlinear least-square analysis of GraphPad Prism 5.0. […]

Substitutions are numbered along the chain they refer to.

As for `O=C(Nc1ccc(O[C@H]2CCNC2)c(-c2ccc(F)cc2)c1)c1ccc(O[C@H]2CCNC2)c(-c2ccc(F)c(F)c2)c1` [Compound 21, (S)-3-((3′,4′-difluoro-5-((4′-fluoro-6-((S)-pyrrolidin-1-ium-3-yloxy)-[1,1′-biphenyl]-3-yl)carbamoyl)-[1,1′-biphenyl]-2-yl)oxy) pyrrolidin-1-ium chloride], the Kd in experiment [1] came out at 333 ± 6 nM; in experiment [3] it was 1590 ± 45 nM; in experiment [4], 924 ± 33 nM. Besides, the “inhibition of mRNA expression” value in experiment [2] is reported as “More than 50%”.
As for `Cl.NCc1ccc(C(N)=O)cc1-c1ccc(F)cc1` [Compound 7, (5-Carbamoyl-4′-fluoro-[1,1′-biphenyl]-2-yl)methanaminium chloride], the “relative inhibitory potency for β-catenin/BCL9 PPIs (in words)” value in experiment [5] is on record as “less potent than 6”.
For `O=C(NCCCC(=O)N1CCNCC1)c1ccc(-c2cc(C(=O)Nc3ccc(O[C@H]4CCNC4)c(-c4ccc(F)cc4)c3)ccc2O[C@H]2CCNC2)cc1` [Compound 29, 4-(4-(5′-((4′-fluoro-6-((S)-pyrrolidin-1-ium-3-yloxy)-[1,1′-biphenyl]-3-yl)carbamoyl)-2′-((S)-pyrrolidin-1-ium-3-yloxy)-[1,1′-biphenyl]-4-ylcarboxamido)butanoyl) piperazin-1-ium], the “selectivity for β-catenin/BCL9 over β-catenin/E-cadherin PPIs (in words)” value in experiment [6] was “much higher selectivity”. For the same molecule, in experiment [5], the “relative inhibitory potency for β-catenin/BCL9 PPIs (in words)” value is listed as “comparable inhibitory potency for β-catenin/BCL9 PPIs as 21”. Further, in experiment [5] (wild-type β-catenin (residues 138-686)/biotinylated BCL9 26-mer, Ki derived from IC50, mean ± SD), the Ki worked out at 2100 ± 432 nM.

The term Kd denotes a measure of binding affinity in units of concentration. One may read the Ki as a dissociation constant, usually derived from enzyme kinetics or from competition with a known ligand.
